In ChEMBL document CHEMBL6083177, “Targeting bromodomian-containing protein 8 (BRD8): An advanced tool to interrogate BRD8” (Eur J Med Chem, 2024):

Experiments:
[1] = Inhibition of BRD8/BRD1 (unknown origin)
[2] = biological target: T1, Bromodomain-containing protein 9 (Homo sapiens, UniProt Q9H8M2); test: Inhibition of BRD9 (unknown origin) by TR-FRET assay
T1 sequence (Q9H8M2 whole entry): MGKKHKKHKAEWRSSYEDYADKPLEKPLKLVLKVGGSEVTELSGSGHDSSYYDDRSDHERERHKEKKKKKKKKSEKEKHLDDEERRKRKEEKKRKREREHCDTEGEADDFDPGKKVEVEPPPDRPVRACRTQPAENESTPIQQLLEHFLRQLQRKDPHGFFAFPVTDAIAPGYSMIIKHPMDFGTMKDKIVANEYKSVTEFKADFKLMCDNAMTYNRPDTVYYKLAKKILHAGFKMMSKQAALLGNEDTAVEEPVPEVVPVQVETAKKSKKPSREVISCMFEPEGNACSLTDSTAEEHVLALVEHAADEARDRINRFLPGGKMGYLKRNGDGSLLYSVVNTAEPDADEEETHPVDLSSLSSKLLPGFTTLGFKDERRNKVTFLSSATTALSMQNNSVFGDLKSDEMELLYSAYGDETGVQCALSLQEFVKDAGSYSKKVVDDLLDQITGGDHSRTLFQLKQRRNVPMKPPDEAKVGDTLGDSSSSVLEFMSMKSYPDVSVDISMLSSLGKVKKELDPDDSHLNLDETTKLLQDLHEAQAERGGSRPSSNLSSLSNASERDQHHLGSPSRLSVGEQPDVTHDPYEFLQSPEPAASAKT

[3] = Inhibition of BRD4/BRD1 (unknown origin)
[4] = Inhibition of BRD8/BRD1 (unknown origin) by Alpha Screen assay
[5] = Inhibition BRD9/BRD1 (unknown origin) by Alpha Screen assay
[6] = biological target: T2, Bromodomain-containing protein 1 (Homo sapiens, UniProt O95696); test: Inhibition of BRD1 (unknown origin)
T2 sequence (O95696 whole entry): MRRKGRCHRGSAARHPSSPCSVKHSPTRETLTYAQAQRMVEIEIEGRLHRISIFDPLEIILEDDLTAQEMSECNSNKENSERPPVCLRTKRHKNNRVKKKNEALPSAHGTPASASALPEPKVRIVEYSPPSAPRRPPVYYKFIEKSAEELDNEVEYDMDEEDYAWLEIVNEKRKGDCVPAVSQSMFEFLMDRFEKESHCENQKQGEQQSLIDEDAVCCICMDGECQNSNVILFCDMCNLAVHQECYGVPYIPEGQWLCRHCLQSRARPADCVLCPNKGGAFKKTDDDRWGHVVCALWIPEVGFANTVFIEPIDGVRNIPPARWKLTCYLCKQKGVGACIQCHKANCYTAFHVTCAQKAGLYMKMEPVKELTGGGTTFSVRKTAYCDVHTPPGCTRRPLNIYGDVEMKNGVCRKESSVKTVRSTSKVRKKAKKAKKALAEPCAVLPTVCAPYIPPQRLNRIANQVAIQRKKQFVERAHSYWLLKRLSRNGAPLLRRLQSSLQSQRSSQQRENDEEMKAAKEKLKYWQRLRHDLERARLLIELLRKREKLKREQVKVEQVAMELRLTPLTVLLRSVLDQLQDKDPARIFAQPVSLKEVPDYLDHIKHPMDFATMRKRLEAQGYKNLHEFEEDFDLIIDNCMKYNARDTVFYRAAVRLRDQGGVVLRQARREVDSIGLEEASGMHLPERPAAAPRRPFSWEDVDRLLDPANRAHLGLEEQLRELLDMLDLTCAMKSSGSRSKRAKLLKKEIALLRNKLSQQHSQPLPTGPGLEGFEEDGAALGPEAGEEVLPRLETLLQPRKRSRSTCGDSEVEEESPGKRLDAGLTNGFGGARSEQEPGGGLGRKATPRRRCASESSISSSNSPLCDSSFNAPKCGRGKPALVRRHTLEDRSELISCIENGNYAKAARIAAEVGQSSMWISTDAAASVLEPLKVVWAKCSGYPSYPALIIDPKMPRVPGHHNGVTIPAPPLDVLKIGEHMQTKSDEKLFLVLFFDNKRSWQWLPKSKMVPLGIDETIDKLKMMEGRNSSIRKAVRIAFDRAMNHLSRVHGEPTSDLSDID

## COc1cc(-c2cn(C)c(=O)c3cc(F)ccc23)c(OC)cc1CN(C)C
[1]
  IC50: 160 nM
[2]
  IC50: 20 nM
[3]
  IC50: > 10000 nM

## COc1cc(CN(C)C)cc(OC)c1-c1cn(C)c(=O)c2cnccc12
[1]
  IC50: 80 nM
[2]
  IC50: > 10000 nM
[3]
  IC50: > 10000 nM

## COc1cc(CN(C)C)cc(OC)c1-c1cn(C)c(=O)c2cc(F)ccc12
[4]
  IC50: 12 nM
[5]
  IC50: 10000 nM

## COc1cc(-c2cn(C)c(=O)c3cnccc23)c(OC)cc1CN1CC(N)C1
[6]
  IC50: 490 nM
[2]
  IC50: < 10 nM
[3]
  IC50: 7400 nM
